Peptide text beside a SMILES is read from it.

In this experiment the test system is mTOR. The experiment can be described thus: mTOR activity by immunoblotting in HeLa cells (wildtype and TSC2-deleted). Type of experiment: cell-based. Conditions: 100 μM GPN 1 h. The procedure: (A) Analysis of mTOR activity in TSC2-deleted (TSC2−/−) and wildtype (TSC2WT) HeLa cells treated with 100 μM GPN in full medium (Full) or starved in EBSS for 1 h. mTOR activity was monitored by immunoblotting analysis of S6K1 (T389) phosphorylation (phosphorylated S6K (p-T389) relative to total S6K). Ctrl, control (untreated cells). (B) Co-immunoprecipitation analysis of changes in interactions between Ragulator and Rag GTPases following treatment with GPN. HEK293T cells stably expressing FLAG-metap2 (control) or FLAG-p14 were treated with 100 μM GPN in full medium for 1 h. Cell lysates were immunoprecipitated (IP) with anti-FLAG antibody and immunoblotted for endogenous RagA or RagC. […] (D) Analysis of mTOR activity in HEK293T cells or HEK293T cells stably expressing constitutively active RagB GTPase (RagBQ99L) treated with 100 μM GPN in full medium or starved in EBSS for 1 h. mTOR activity was monitored as in A. Data, means±SEM, (n=3), † not significant, **p<0.01, ANOVA. […] (F) Quantification by HC of overlaps between mTOR and LAMP2 (representative images shown in FIG. S2C) in HEK293T cells and HEK293T cells stably expressing constitutively active RagB GTPase (RagBQ99L) treated with 100 μM GPN in full medium for 1 h. Data, means±SEM, n≥3 independent experiments (500 primary objects counted per well; ≥5 wells/sample per each experiment); † p≥0.05, *p<0.05, ANOVA. […]
A general note: Immunoblotting shows a protein as a band on a membrane.

Take `NCC(=O)N[C@@H](Cc1ccccc1)C(=O)Nc1ccc2ccccc2c1` [GPN, glycyl-L-phenylalanine 2-naphththylamide] (HELM PEPTIDE1{G.F.[c1ccc2cc(N[*:1])ccc2c1]}$$$$V2.0): the “mTOR activity in different cell lines” value (HeLa cells, comparable to starvation) is “inhibited mTOR activity”. Besides, the “mTOR activity in cells null for TSC2” value (TSC2-deleted HeLa cells) is on record as “inhibited mTOR”.

(Values after patent publication US20210069295A1, “GALECTINS CONTROL MTOR IN RESPONSE TO ENDOMEMBRANE DAMAGE AND PROVIDE A MECHANISM AND TARGET FOR THE TREATMENT OF AUTOPHAGY-RELATED DISEASES” (STC. UNM, priority 2017, published 2021).)
